Legend:
b-Raf = b-Raf (Homo sapiens (Human), UniProt P15056); experiment: Enzyme-inhibiting activity test of kinases other than Trk (selectivity experiment): b-Raf; format: biochemical; settings: concentration of 3 μM; read-out: Inhibition rate (%) b-Raf
Protocol: (§1) A test substance (the present compound) was dissolved in dimethylsulfoxide to prepare a 100-fold concentration of the test concentration, 3 μM. The solution was further diluted to 25-fold with an assay buffer (20 mM HEPES, 0.01% Triton X-100, 2 mM DTT, pH 7.5) to obtain a test substance solution. In a similar manner a positive control substance solution was prepared with a positive control substance.
(§2) A 4-times concentration solution (5 μL) of the test substance prepared with the assay buffer, 5 μL of a 4-times concentration solution of substrate/ATP/metal (Mg) and 10 μL of a 2-times concentration solution of kinase were mixed in a well of a polypropylene 384-well plate and allowed to react at room temperature for 1 hour. The reaction was terminated by adding 60 μL of a Termination Buffer (QuickScout Screening Assist MSA; Carna Biosciences). The substrate peptide and the phosphorylated peptide in the reaction solution were separated and quantified. The kinase reaction was assessed from the product ratio (P/(P+S)) calculated from the height (S) of the peak of the substrate peptide and the height (P) of the peak of the phosphorylated peptide. Other kinases used in the kinase selectivity experiments were, for example, b-Raf and KDR. The following Table 3 indicates substrates, substrate concentrations, ATP concentrations and positive control substances used in respective kinase enzyme inhibition activity tests.

KDR = KDR (Homo sapiens (Human), UniProt P35968); experiment: Enzyme-inhibiting activity test of kinases other than Trk (selectivity experiment): KDR; format: biochemical; settings: concentration of 3 μM; read-out: Inhibition rate (%) KDR
Sequence of KDR (P35968 20-1356, species assumed): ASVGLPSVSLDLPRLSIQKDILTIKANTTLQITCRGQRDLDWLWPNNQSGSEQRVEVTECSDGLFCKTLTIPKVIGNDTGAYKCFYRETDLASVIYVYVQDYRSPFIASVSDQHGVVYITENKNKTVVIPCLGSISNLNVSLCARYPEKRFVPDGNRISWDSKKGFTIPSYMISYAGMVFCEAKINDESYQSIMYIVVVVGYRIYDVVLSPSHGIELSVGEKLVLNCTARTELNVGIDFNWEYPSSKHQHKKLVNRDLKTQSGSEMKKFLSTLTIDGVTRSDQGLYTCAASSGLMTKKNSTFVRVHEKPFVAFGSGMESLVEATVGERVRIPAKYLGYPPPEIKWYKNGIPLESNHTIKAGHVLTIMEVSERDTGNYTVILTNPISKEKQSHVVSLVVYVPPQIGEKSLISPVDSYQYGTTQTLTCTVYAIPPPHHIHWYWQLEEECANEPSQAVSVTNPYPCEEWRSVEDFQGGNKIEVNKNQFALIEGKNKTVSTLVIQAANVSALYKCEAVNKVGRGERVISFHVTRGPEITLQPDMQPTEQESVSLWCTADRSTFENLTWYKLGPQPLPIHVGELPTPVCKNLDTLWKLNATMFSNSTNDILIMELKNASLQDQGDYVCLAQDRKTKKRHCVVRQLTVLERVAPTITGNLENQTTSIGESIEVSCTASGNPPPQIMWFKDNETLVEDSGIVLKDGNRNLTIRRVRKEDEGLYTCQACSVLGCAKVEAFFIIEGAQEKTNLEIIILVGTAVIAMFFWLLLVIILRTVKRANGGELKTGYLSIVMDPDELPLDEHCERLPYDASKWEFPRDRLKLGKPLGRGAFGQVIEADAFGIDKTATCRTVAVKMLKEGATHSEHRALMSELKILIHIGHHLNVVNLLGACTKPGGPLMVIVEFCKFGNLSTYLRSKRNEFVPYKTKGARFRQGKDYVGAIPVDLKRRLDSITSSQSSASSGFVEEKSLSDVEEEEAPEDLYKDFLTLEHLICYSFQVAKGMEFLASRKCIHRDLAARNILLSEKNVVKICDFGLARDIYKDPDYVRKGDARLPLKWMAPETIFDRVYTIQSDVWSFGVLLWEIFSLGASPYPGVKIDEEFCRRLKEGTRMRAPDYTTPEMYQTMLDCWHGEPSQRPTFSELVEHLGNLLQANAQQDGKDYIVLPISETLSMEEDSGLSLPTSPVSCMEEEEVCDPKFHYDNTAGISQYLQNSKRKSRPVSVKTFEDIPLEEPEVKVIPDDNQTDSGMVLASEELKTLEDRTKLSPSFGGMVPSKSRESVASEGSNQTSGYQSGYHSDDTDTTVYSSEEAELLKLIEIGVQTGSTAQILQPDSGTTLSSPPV
Protocol: as §1, §2

[1] = system: sodium monoiodoacetate-induced model rats; experiment: Analgesic effect on sodium monoiodoacetate-induced model rats; format: in vivo, rat; settings: MIA-induced model rats
[2] = test substance orally twice a day day 14 to 23, day 24 3 hours before measurement, right hind limb weight load ratio, experiment with tramadol as positive control
[3] = test substance orally twice a day day 14 to 23, day 24 3 hours before measurement, right hind limb weight load ratio, experiment with morphine as positive control

Sequence of b-Raf (P15056 whole entry, species assumed): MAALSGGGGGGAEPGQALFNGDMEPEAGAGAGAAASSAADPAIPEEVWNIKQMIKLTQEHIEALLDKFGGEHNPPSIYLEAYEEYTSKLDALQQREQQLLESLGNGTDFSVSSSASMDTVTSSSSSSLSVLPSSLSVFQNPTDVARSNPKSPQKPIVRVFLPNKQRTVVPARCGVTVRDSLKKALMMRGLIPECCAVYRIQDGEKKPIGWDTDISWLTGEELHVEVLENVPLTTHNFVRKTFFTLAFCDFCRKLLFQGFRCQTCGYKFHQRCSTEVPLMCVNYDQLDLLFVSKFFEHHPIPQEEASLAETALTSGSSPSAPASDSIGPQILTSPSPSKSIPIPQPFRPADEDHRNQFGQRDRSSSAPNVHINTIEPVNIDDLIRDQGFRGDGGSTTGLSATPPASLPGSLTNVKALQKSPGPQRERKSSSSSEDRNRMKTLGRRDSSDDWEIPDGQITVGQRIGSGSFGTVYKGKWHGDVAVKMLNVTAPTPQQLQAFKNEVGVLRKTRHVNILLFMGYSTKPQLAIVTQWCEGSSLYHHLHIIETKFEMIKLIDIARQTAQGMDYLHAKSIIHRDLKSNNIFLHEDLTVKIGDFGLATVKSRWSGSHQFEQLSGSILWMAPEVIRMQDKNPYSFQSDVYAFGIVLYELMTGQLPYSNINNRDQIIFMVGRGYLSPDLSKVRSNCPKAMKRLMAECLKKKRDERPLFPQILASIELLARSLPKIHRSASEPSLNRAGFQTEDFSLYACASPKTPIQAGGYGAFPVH

Compound | inhibition at 3 µM (b-Raf) | inhibition at 3 µM (KDR) | Percent improvement (%) [1, 2] | Percent improvement (%) [1, 3] | Percent improvement (%) ([1]; 10 mg/kg subcutaneously 1 hour before measurement on day 24)
Nc1ncc(Cl)cc1-c1ccc(Oc2ncc(NC(=O)Nc3cc(C(F)(F)F)ccc3-n3cccn3)cn2)cc1 [Example 7, 1-(2-(1H-pyrazol-1-yl)-5-(trifluoromethyl)phenyl)-3-(2-(4-(2-amino-5-chloropyridin-3-yl)phenoxy)pyrimidin-5-yl)urea] | 40% | 0% | 61% | – | –
Cc1cn(-c2ccc(C(F)(F)F)cc2NC(=O)Nc2cnc(Oc3ccc(-c4cc(Cl)cnc4N)cc3)nc2)nn1 [Example 8-1, 1-(2-(4-(2-amino-5-chloropyridin-3-yl)phenoxy)pyrimidin-5-yl)-3-(2-(4-methyl-1H-1,2,3-triazol-1-yl)-5-(trifluoromethyl)phenyl)urea] | 6.5% | 0% | 60% | – | –
Nc1ncc(Cl)cc1-c1ccc(Oc2ncc(NC(=O)Nc3cc(C(F)(F)F)ccc3-n3ccc(C(F)(F)F)n3)cn2)cc1 [Example 8-2, 1-(2-(4-(2-amino-5-chloropyridin-3-yl)phenoxy)pyrimidin-5-yl)-3-(5-(trifluoromethyl)-2-(3-(trifluoromethyl)-1H-pyrazol-1-yl)phenyl)urea] | 21% | 0% | – | – | –
Cn1nccc1-c1ccc(C(F)(F)F)cc1NC(=O)Nc1cnc(Oc2ccc(-c3cc(Cl)cnc3N)cc2)nc1 [Example 13-1, 1-(2-(4-(2-amino-5-chloropyridin-3-yl)phenoxy)pyrimidin-5-yl)-3-(2-(1-methyl-1H-pyrazol-5-yl)-5-(trifluoromethyl)phenyl)urea] | 33% | 7.5% | – | – | –
Nc1ncc(F)cc1-c1ccc(Oc2ncc(NC(=O)Nc3cc(C(F)(F)F)ccc3-n3ccnn3)cn2)cc1 [Example 14-5, 1-(2-(1H-1,2,3-triazol-1-yl)-5-(trifluoromethyl)phenyl)-3-(2-(4-(2-amino-5-fluoropyridin-3-yl)phenoxy)pyrimidin-5-yl)urea] | 13% | 0% | 47% | – | –
Nc1ncc(F)cc1-c1ccc(Oc2ncc(NC(=O)Nc3cc(C(F)(F)F)ccc3-c3cccnc3)cn2)cc1 [Example 14-6, 1-(2-(4-(2-amino-5-fluoropyridin-3-yl)phenoxy)pyrimidin-5-yl)-3-(2-(pyridin-3-yl)-5-(trifluoromethyl)phenyl)urea] | 45% | 1.7% | – | 53% | –
Nc1ncc(Cl)cc1-c1ccc(Oc2ncc(NC(=O)Nc3ccc(C(F)(F)F)cc3-n3cccn3)cn2)cc1 [Example 15-4, 1-(2-(1H-pyrazol-1-yl)-4-(trifluoromethyl)phenyl)-3-(2-(4-(2-amino-5-chloropyridin-3-yl)phenoxy)pyrimidin-5-yl)urea] | 0% | 0% | – | – | –
Nc1ncc(Cl)cc1-c1ccc(Oc2ncc(NC(=O)Nc3ccc(C(F)(F)F)cc3Cl)cn2)cc1 [Example 15-6, 1-(2-(4-(2-amino-5-chloropyridin-3-yl)phenoxy)pyrimidin-5-yl)-3-(2-chloro-4-(trifluoromethyl)phenyl)urea] | 37% | 0% | 51% | – | –
Nc1ncc(C(F)(F)F)cc1-c1ccc(Oc2ncc(NC(=O)Nc3cc(C(F)(F)F)ccc3-n3ccc(C(F)(F)F)n3)cn2)cc1 [Example 15-52, 1-(2-{4-[2-amino-5-(trifluoromethyl)-3-pyridinyl]phenoxyl}-5-pyrimidinyl)-3-{5-(trifluoromethyl)-2-[3-(trifluoromethyl)-1H-pyrazol-1-yl]phenyl}urea] | 20% | 0% | – | 60% | –
Nc1ncc(Cl)cc1-c1ccc(Oc2ncc(NC(=O)Nc3cc(C(F)(F)F)ccc3-c3ccccc3)cn2)cc1 [Example 15-55, 1-{2-[4-(2-amino-5-chloro-3-pyridinyl)phenoxy]-5-pyrimidinyl}-3-[4-(trifluoromethyl)-2-biphenylyl]urea] | 30% | 0% | – | 62% | –
Nc1ncc(F)cc1-c1ccc(Oc2ncc(NC(=O)Nc3cc(C(F)(F)F)ccc3-c3ccccc3)cn2)cc1 [Example 15-58, 1-{2-[4-(2-amino-5-fluoro-3-pyridinyl)phenoxy]-5-pyrimidinyl}-3-[4-(trifluoromethyl)-2-biphenylyl]urea] | 30% | 0% | – | – | –
Nc1ncc(Cl)cc1-c1ccc(Oc2ncc(NC(=O)Nc3cc(Cl)ccc3-n3ccc(C(F)(F)F)n3)cn2)cc1 [Example 15-71, 1-{2-[4-(2-amino-5-chloro-3-pyridinyl)phenoxy]-5-pyrimidinyl}-3-{5-chloro-2-[3-(trifluoromethyl)-1H-pyrazol-1-yl]phenyl}urea] | 40% | 0% | – | – | –
CS(=O)(=O)c1ccc(C(F)(F)F)cc1NC(=O)Nc1cnc(Oc2ccc(-c3cc(F)cnc3N)cc2)nc1 [Example 15-96, 1-{2-[4-(2-amino-5-fluoro-3-pyridinyl)phenoxy]-5-pyrimidinyl}-3-[2-(methylsulfonyl)-5-(trifluoromethyl)phenyl]urea] | 22% | 2% | – | – | –
CN(C)S(=O)(=O)c1ccc(C(F)(F)F)cc1NC(=O)Nc1cnc(Oc2ccc(-c3cc(C(F)(F)F)cnc3N)cc2)nc1 [Example 15-105, 2-{[(2-{4-[2-amino-5-(trifluoromethyl)-3-pyridinyl]phenoxyl}-5-pyrimidinyl)carbamoyl]amino}-N,N-dimethyl-4-(trifluoromethyl)benzenesulfonamide] | 26% | 0% | – | – | –
O=C(Nc1cnc(Oc2ccc(-c3cnn4ccc(N5CCC5)nc34)cc2)nc1)Nc1cc(C(F)(F)F)ccc1-c1cccnc1 [Example 21-1, 1-(2-(4-(5-(azetidin-1-yl)pyrazolo[1,5-a]pyrimidin-3-yl)phenoxy)pyrimidin-5-yl)-3-(2-(pyridin-3-yl)-5-(trifluoromethyl)phenyl)urea] | 36% | 1.5% | – | – | –
Cn1nccc1-c1ccc(C(F)(F)F)cc1NC(=O)Nc1cnc(Oc2ccc(-c3cnn4ccc(N5CCC5)nc34)cc2)nc1 [Example 21-2, 1-(2-(4-(5-(azetidin-1-yl)pyrazolo[1,5-a]pyrimidin-3-yl)phenoxy)pyrimidin-5-yl)-3-(2-(1-methyl-1H-pyrazol-5-yl)-5-(trifluoromethyl)phenyl)urea] | 30% | 1% | – | – | –
COc1ccn2ncc(-c3ccc(Oc4ncc(NC(=O)Nc5cc(C(F)(F)F)ccc5-c5cccnc5)cn4)cc3)c2n1 [Example 21-9, 1-(2-(4-(5-methoxypyrazolo[1,5-a]pyrimidin-3-yl)phenoxy)pyrimidin-5-yl)-3-(2-(pyridin-3-yl)-5-(trifluoromethyl)phenyl)urea] | – | – | 64% | – | –
O=C(Nc1cnc(Oc2ccc(-c3cnn4cccnc34)cc2)nc1)Nc1cc(C(F)(F)F)ccc1-c1cccnc1 [Example 21-13, 1-(2-(4-(pyrazolo[1,5-a]pyrimidin-3-yl)phenoxy)pyrimidin-5-yl)-3-(2-(pyridin-3-yl)-5-(trifluoromethyl)phenyl)urea] | – | – | 66% | – | –
Cc1ccn2ncc(-c3ccc(Oc4ncc(NC(=O)Nc5cc(C(F)(F)F)ccc5-c5cccnc5)cn4)cc3)c2n1 [Example 21-65, 1-{2-[4-(5-methylpyrazolo[1,5-a]pyrimidin-3-yl)phenoxy]-5-pyrimidinyl}-3-[2-(3-pyridinyl)-5-(trifluoromethyl)phenyl]urea] | 58% | 19% | – | – | –
CCNc1ccn2ncc(-c3ccc(Oc4ncc(NC(=O)Nc5cc(C(F)(F)F)ccc5-c5cccc(C)c5)cn4)cc3)c2n1 [Example 21-67, 1-(2-{4-[5-(ethylamino)pyrazolo[1,5-a]pyrimidin-3-yl]phenoxyl}-5-pyrimidinyl)-3-[3′-methyl-4-(trifluoromethyl)-2-biphenylyl]urea] | 19% | 0% | – | – | –
Cc1ccccc1-c1ccc(C(F)(F)F)cc1NC(=O)Nc1cnc(Oc2ccc(-c3cnn4ccc(N(C)C)nc34)cc2)nc1 [Example 21-75, 1-(2-{4-[5-(dimethylamino)pyrazolo[1,5-a]pyrimidin-3-yl]phenoxyl}-5-pyrimidinyl)-3-[2′-methyl-4-(trifluoromethyl)-2-biphenylyl]urea] | 41% | 0% | – | – | –
CCOc1ccc2ncc(-c3ccc(Oc4ncc(NC(=O)Nc5cc(C(F)(F)F)ccc5-c5cccnc5)cn4)cc3)n2n1 [Example 22-34, 1-{2-[4-(6-ethoxyimidazo[1,2-b]pyridazin-3-yl)phenoxy]-5-pyrimidinyl}-3-[2-(3-pyridinyl)-5-(trifluoromethyl)phenyl]urea] | 56% | 19% | – | – | –
COc1cccc(C2(O)CCCCC2CN(C)C)c1 (centres unmarked) [Tramadol, tramadol, reference compound] | – | – | – | – | 43%

From patent US10300060B2, “Trk-inhibiting compound” (ONO PHARMACEUTICAL CO., LTD., priority 2013, dated 2019)
